Test results taken from article PMC8745314, “Novel Tetrazole-Based Antimicrobial Agents Targeting Clinical Bacteria Strains: Exploring the Inhibition of Staphylococcus aureus DNA Topoisomerase IV and Gyrase” (International Journal of Molecular Sciences, 2021).
Converted amounts (≈) assume the structure as drawn. Like-named read-outs stand apart in the source and are kept apart here.

Experiments:
Assay type in all cases: cell-based
E. coli 520 = experiment: MIC broth microdilution, clinical isolate; details: Escherichia coli; E. coli 520, clinical isolate, 19 h at 35 °C; read-out: minimal inhibitory concentration (MIC)
Description: (§1) In the next stage of the experiment, 8 of 11 compounds were selected for a clinical strain activity evaluation against S. aureus, S. epidermidis, E. coli, K. pneumoniae, and P. aeruginosa.
(§2) The antimicrobial assays were conducted using reference strains of bacteria derived from international microbe collections: American Type Culture Collection (ATCC) and National Collection of Type Culture (NCTC). The following standard strains of bacteria were used: Gram-positive—Staphylococcus aureus NCTC 4163, Staphylococcus aureus ATCC 25923, Staphylococcus aureus ATCC 6538, Staphylococcus aureus ATCC 29213, Staphylococcus epidermidis ATCC 12228, Staphylococcus epidermidis ATCC 35984, Gram-negative: Escherichia coli ATCC 25922, Pseudomonas aeruginosa ATCC 15442. Clinical strains of bacteria used in this study: Gram-positive: Staphylococcus epidermidis 5253, Staphylococcus epidermidis 4243, Staphylococcus aureus T5592, Staphylococcus aureus T5591 and Gram-negative: Escherichia coli 520, Escherichia coli 600, Klebsiella pneumoniae 510 and Pseudomonas aeruginosa 659 were obtained from the collection of the Department of Pharmaceutical Microbiology, Medical University of Warsaw, Poland and they were isolated from different biological materials taken from the patients hospitalized in the Warsaw Medical University hospitals. […] MIC was determined by the two-fold serial broth microdilution method in 96-well microtitration plates using Mueller–Hinton II broth medium (Becton Dickinson, Franklin Lakes, NJ, USA). The final inoculum of all studied bacteria was 10^6 CFU/mL (colony forming unit per milliliter). The stock solution of tested compounds was prepared in dimethyl sulfoxide (DMSO) and diluted to a maximum of 1% of solvent content with a sterile medium.

E. coli 600 = experiment: MIC broth microdilution, clinical isolate; details: Escherichia coli; E. coli 600, clinical isolate, 19 h at 35 °C; read-out: minimal inhibitory concentration (MIC)
Description: as §1, §2

K. pneumoniae 510 = experiment: MIC broth microdilution, clinical isolate; details: Klebsiella pneumoniae; K. pneumoniae 510, clinical isolate, 19 h at 35 °C; read-out: minimal inhibitory concentration (MIC)
Description: as §1, §2

P. aeruginosa 659 = experiment: MIC broth microdilution, clinical isolate; details: Pseudomonas aeruginosa; P. aeruginosa 659, clinical isolate, 19 h at 35 °C; read-out: minimal inhibitory concentration (MIC)
Description: as §1, §2

S. aureus T5591 = experiment: MIC broth microdilution, clinical isolate; details: Staphylococcus aureus, 19 h at 35 °C, read-out: minimal inhibitory concentration (MIC)
Description: as §1, §2

S. aureus T5592 = experiment: MIC broth microdilution, clinical isolate; details: Staphylococcus aureus, 19 h at 35 °C, read-out: minimal inhibitory concentration (MIC)
Description: as §1, §2

S. epidermidis 4243 = experiment: MIC broth microdilution, clinical isolate; details: Staphylococcus epidermidis; S. epidermidis 4243, clinical isolate, 19 h at 35 °C; read-out: minimal inhibitory concentration (MIC)
Description: as §1, §2

S. epidermidis 5253 = experiment: MIC broth microdilution, clinical isolate; details: Staphylococcus epidermidis; S. epidermidis 5253, clinical isolate, 19 h at 35 °C; read-out: minimal inhibitory concentration (MIC)
Description: as §1, §2

[1] = system: clinical strains (S. aureus, S. epidermidis, E. coli, K. pneumoniae, P. aeruginosa); experiment: MIC ranges over the panel of clinical strains
Description: In the next stage of the experiment, 8 of 11 compounds were selected for a clinical strain activity evaluation against S. aureus, S. epidermidis, E. coli, K. pneumoniae, and P. aeruginosa. […] Additionally, all three inhibited the growth of all clinical Staphylococci panels: S. aureus (T5592; T5591) and S. epidermidis (5253; 4243) with MIC values of 0.8 μg/mL.
The antimicrobial assays were conducted using reference strains of bacteria derived from international microbe collections: American Type Culture Collection (ATCC) and National Collection of Type Culture (NCTC). The following standard strains of bacteria were used: Gram-positive—Staphylococcus aureus NCTC 4163, Staphylococcus aureus ATCC 25923, Staphylococcus aureus ATCC 6538, Staphylococcus aureus ATCC 29213, Staphylococcus epidermidis ATCC 12228, Staphylococcus epidermidis ATCC 35984, Gram-negative: Escherichia coli ATCC 25922, Pseudomonas aeruginosa ATCC 15442. Clinical strains of bacteria used in this study: Gram-positive: Staphylococcus epidermidis 5253, Staphylococcus epidermidis 4243, Staphylococcus aureus T5592, Staphylococcus aureus T5591 and Gram-negative: Escherichia coli 520, Escherichia coli 600, Klebsiella pneumoniae 510 and Pseudomonas aeruginosa 659 were obtained from the collection of the Department of Pharmaceutical Microbiology, Medical University of Warsaw, Poland and they were isolated from different biological materials taken from the patients hospitalized in the Warsaw Medical University hospitals. Antimicrobial activity was examined by the minimal inhibitory concentration (MIC) method under standard procedures provided by CLSI with some modifications. MIC was determined by the two-fold serial broth microdilution method in 96-well microtitration plates using Mueller–Hinton II broth medium (Becton Dickinson, Franklin Lakes, NJ, USA). The final inoculum of all studied bacteria was 10^6 CFU/mL (colony forming unit per milliliter). The stock solution of tested compounds was prepared in dimethyl sulfoxide (DMSO) and diluted to a maximum of 1% of solvent content with a sterile medium.

[2] = system: standard and clinical Gram-positive and Gram-negative bacterial strains; experiment: MIC range over standard and clinical strains (abstract)
Description: Eleven novel imide-tetrazoles were synthesized. In the initial stage of research, in silico structure-based pharmacological prediction was conducted. All compounds were screened for antimicrobial activity using standard and clinical strains. Within the studied group, compounds 1–3 were recognized as leading structures with the most promising results in antimicrobial studies. […] Additionally, all three inhibited the growth of all clinical Staphylococci panels: Staphylococcus aureus (T5592; T5591) and Staphylococcus epidermidis (5253; 4243) with MIC values of 0.8 μg/mL. Selected compounds were examined in topoisomerase IV decatenation assay and DNA gyrase supercoiling assay, followed by suitable molecular docking studies to explore the possible binding modes. […] The compounds 1–3 proposed here provide a promising basis for further exploration towards novel antimicrobial drug candidates.
The antimicrobial assays were conducted using reference strains of bacteria derived from international microbe collections: American Type Culture Collection (ATCC) and National Collection of Type Culture (NCTC). The following standard strains of bacteria were used: Gram-positive—Staphylococcus aureus NCTC 4163, Staphylococcus aureus ATCC 25923, Staphylococcus aureus ATCC 6538, Staphylococcus aureus ATCC 29213, Staphylococcus epidermidis ATCC 12228, Staphylococcus epidermidis ATCC 35984, Gram-negative: Escherichia coli ATCC 25922, Pseudomonas aeruginosa ATCC 15442. […] MIC was determined by the two-fold serial broth microdilution method in 96-well microtitration plates using Mueller–Hinton II broth medium (Becton Dickinson, Franklin Lakes, NJ, USA). […]

[3] = 19 h, against Gram-positive clinical strains, read-out: MIC values, range
[4] = 19 h, clinical (hospital) strains, read-out: MIC values, range
[5] = all clinical Staphylococci panels: S. aureus (T5592; T5591) and S. epidermidis (5253; 4243), read-out: MIC values

SMILES	MIC (E. coli 520)	MIC (E. coli 600)	MIC (K. pneumoniae 510)	MIC (P. aeruginosa 659)	MIC (S. aureus T5591)	MIC (S. aureus T5592)	MIC (S. epidermidis 4243)	MIC (S. epidermidis 5253)	MIC [1, 3]	MIC [1, 4]	MIC [1, 5]	MIC values, range [2]
Cc1ccc(-n2nnnc2NN2C(=O)C3C(C2=O)C2(C(C)C)C=CC3(C)CC2)cc1 (stereo not drawn) [Compound 10, 4-Isopropyl-7-methyl-2-((1-(p-tolyl)-1H-tetrazol-5-yl)amino)-3a,4,7,7a-tetrahydro-1H-4,7-ethanoisoindole-1,3(2H)-dione]	32 µg/mL (≈ 78.7 µM)	32 µg/mL (≈ 78.7 µM)	32 µg/mL (≈ 78.7 µM)	32 µg/mL (≈ 78.7 µM)	16 µg/mL (≈ 39.4 µM)	16 µg/mL (≈ 39.4 µM)	8 µg/mL (≈ 19.7 µM)	16 µg/mL (≈ 39.4 µM)	2 to 32 µg/mL (≈ 4.92 to 78.7 µM)	–	–	–
CC1=C(C)C2(C)CC1(C)C1C(=O)N(Nc3nnnn3-c3ccccc3Br)C(=O)C12 (stereo not drawn) [Compound 3, 2-((1-(2-Bromophenyl)-1H-tetrazol-5-yl)amino)-4,5,6,7-tetramethyl-3a,4,7,7a-tetrahydro-1H-4,7-methanoisoindole-1,3(2H)-dione]	1.6 µg/mL (≈ 3.5 µM)	1.6 µg/mL (≈ 3.5 µM)	3.2 µg/mL (≈ 7 µM)	1.6 µg/mL (≈ 3.5 µM)	0.8 µg/mL (≈ 1.75 µM)	0.8 µg/mL (≈ 1.75 µM)	0.8 µg/mL (≈ 1.75 µM)	0.8 µg/mL (≈ 1.75 µM)	–	0.8 to 3.2 µg/mL (≈ 1.75 to 7 µM)	0.8 µg/mL (≈ 1.75 µM)	0.8 to 3.2 µg/mL
CC1=C(C)C2(C)CC1(C)C1C(=O)N(Nc3nnnn3-c3ccccc3)C(=O)C12 (stereo not drawn) [Compound 6, 4,5,6,7-Tetramethyl-2-((1-phenyl-1H-tetrazol-5-yl)amino)-3a,4,7,7a-tetrahydro-1H-4,7-methanoisoindole-1,3(2H)-dione]	8 µg/mL (≈ 21.1 µM)	8 µg/mL (≈ 21.1 µM)	16 µg/mL (≈ 42.3 µM)	16 µg/mL (≈ 42.3 µM)	4 µg/mL (≈ 10.6 µM)	4 µg/mL (≈ 10.6 µM)	4 µg/mL (≈ 10.6 µM)	4 µg/mL (≈ 10.6 µM)	2 to 32 µg/mL (≈ 5.28 to 84.6 µM)	–	–	–
CC(C)C12C=CC(C)(CC1)C1C(=O)N(Nc3nnnn3-c3ccc([N+](=O)[O-])cc3)C(=O)C12 (stereo not drawn) [Compound 8, 4-Isopropyl-7-methyl-2-((1-(4-nitrophenyl)-1H-tetrazol-5-yl)amino)-3a,4,7,7a-tetrahydro-1H-4,7-ethanoisoindole-1,3(2H)-dione]	> 256 µg/mL	> 256 µg/mL	> 256 µg/mL	> 256 µg/mL	16 µg/mL (≈ 36.6 µM)	16 µg/mL (≈ 36.6 µM)	16 µg/mL (≈ 36.6 µM)	16 µg/mL (≈ 36.6 µM)	2 to 32 µg/mL (≈ 4.57 to 73.1 µM)	–	–	–
CC1=C(C)C2(C)CC1(C)C1C(=O)N(Nc3nnnn3-c3cccc(C(F)(F)F)c3)C(=O)C12 (stereo not drawn) [Compound 1, 4,5,6,7-Tetramethyl-2-((1-(3-(trifluoromethyl)phenyl)-1H-tetrazol-5-yl)amino)-3a,4,7,7a-tetrahydro-1H-4,7-methanoisoindole-1,3(2H)-dione]	3.2 µg/mL (≈ 7.17 µM)	3.2 µg/mL (≈ 7.17 µM)	3.2 µg/mL (≈ 7.17 µM)	1.6 µg/mL (≈ 3.58 µM)	0.8 µg/mL (≈ 1.79 µM)	0.8 µg/mL (≈ 1.79 µM)	0.8 µg/mL (≈ 1.79 µM)	0.8 µg/mL (≈ 1.79 µM)	–	0.8 to 3.2 µg/mL (≈ 1.79 to 7.17 µM)	0.8 µg/mL (≈ 1.79 µM)	0.8 to 3.2 µg/mL
CC(C)C12C=CC(C)(CC1)C1C(=O)N(Nc3nnnn3-c3ccccc3Br)C(=O)C12 (stereo not drawn) [Compound 9, 2-((1-(2-Bromophenyl)-1H-tetrazol-5-yl)amino)-4-isopropyl-7-methyl-3a,4,7,7a-tetrahydro-1H-4,7-ethanoisoindole-1,3(2H)-dione]	8 µg/mL (≈ 17 µM)	8 µg/mL (≈ 17 µM)	16 µg/mL (≈ 33.9 µM)	16 µg/mL (≈ 33.9 µM)	4 µg/mL (≈ 8.49 µM)	4 µg/mL (≈ 8.49 µM)	2 µg/mL (≈ 4.24 µM)	4 µg/mL (≈ 8.49 µM)	2 to 32 µg/mL (≈ 4.24 to 67.9 µM)	–	–	–
CC1=C(C)C2(C)CC1(C)C1C(=O)N(Nc3nnnn3-c3ccc([N+](=O)[O-])cc3)C(=O)C12 (stereo not drawn) [Compound 4, 4,5,6,7-Tetramethyl-2-((1-(4-nitrophenyl)-1H-tetrazol-5-yl)amino)-3a,4,7,7a-tetrahydro-1H-4,7-methanoisoindole-1,3(2H)-dione]	256 µg/mL (≈ 605 µM)	256 µg/mL (≈ 605 µM)	256 µg/mL (≈ 605 µM)	256 µg/mL (≈ 605 µM)	32 µg/mL (≈ 75.6 µM)	16 µg/mL (≈ 37.8 µM)	32 µg/mL (≈ 75.6 µM)	16 µg/mL (≈ 37.8 µM)	2 to 32 µg/mL (≈ 4.72 to 75.6 µM)	–	–	–
CC1=C(C)C2(C)CC1(C)C1C(=O)N(Nc3nnnn3-c3ccccc3Cl)C(=O)C12 (stereo not drawn) [Compound 2, 2-((1-(2-Chlorophenyl)-1H-tetrazol-5-yl)amino)-4,5,6,7-tetramethyl-3a,4,7,7a-tetrahydro-1H-4,7-methanoisoindole-1,3(2H)-dione]	3.2 µg/mL (≈ 7.75 µM)	1.6 µg/mL (≈ 3.88 µM)	3.2 µg/mL (≈ 7.75 µM)	1.6 µg/mL (≈ 3.88 µM)	0.8 µg/mL (≈ 1.94 µM)	0.8 µg/mL (≈ 1.94 µM)	0.8 µg/mL (≈ 1.94 µM)	0.8 µg/mL (≈ 1.94 µM)	–	0.8 to 3.2 µg/mL (≈ 1.94 to 7.75 µM)	0.8 µg/mL (≈ 1.94 µM)	0.8 to 3.2 µg/mL
